Data published in article PMC12259270, “Sensory neuron–expressed FGF13 controls nociceptive signaling in diabetic neuropathy models” (The Journal of Clinical Investigation, 2025).
Residues, ends and D or L forms follow the SMILES beside them. *: point of attachment. Cbz = O=C(OCc1ccccc1)*; NHPh = c1ccc(N*)cc1; OtBu = CC(C)(C)O*

System: Na+ currents in hIPSC-derived sensory neurons (RealDRG)
Test: Whole-cell voltage clamp, hIPSC-derived sensory neurons (RealDRG) with Nav1.7 blocker ProTx-II
Format: cell-based, human
Details: for Activation / Peak Density / Steady-State inactivation / Tau (τ) / Long-term inactivation, 2nd Pulse / Long-term inactivation, 3rd Pulse / Long-term inactivation, 4th Pulse: RealDRG
Experimental: Next, we conducted whole-cell patch-clamp electrophysiological recordings in hIPSC-derived sensory neurons under three conditions: unstimulated and treated with 0.07% ethanol (capsaicin vehicle), treated with capsaicin (100 nM, 10 minutes), and treated with capsaicin plus SB-366791 (10 μM), a selective TRPV1 inhibitor. Each group was exposed to either vehicle (0.01% DMSO) or PW164 (50 μM), with all recordings performed in the presence of the Nav1.8 blocker A-803467 (300 nM) ([41]). The experimental groups are color coded in Figure 2A. Capsaicin caused potentiation of INa (Figure 2A) and induced hyperpolarizing shifts in the V1/2 of activation (Figure 2B) and SSI (Figure 2C). […] Next, we investigated whether silencing FGF13 could replicate PW164’s effects and prevent additional activity of the compound. hIPSC-derived sensory neurons were transfected with a previously validated pAAV-shFGF13-GFP construct ([42]) (Supplemental Figure 8). […] Neither PW164 nor FGF13 silencing affected Na+ currents in neurons transfected with pAAV-shCTRL-GFP or pAAV-shFGF13-GFP, whether unstimulated or treated with capsaicin in the presence of ProTx II (Supplemental Figure 9 and Supplemental Table 6). Thus, PW164 selectively modulated FGF13-dependent Na^+ current sensitization via TRPV1, with FGF13 silencing mimicking and validating PW164’s effect. […]
Whole-cell patch clamp electrophysiology
HEK293-Nav1.7 cells, HEK293 stably expressing human Nav1.6 (HEK-Nav1.6), HEK293 stably expressing human Nav1.5 (HEK-Nav1.5), human hIPSC-derived sensory neurons (RealDRGTM from Anatomic Incorporated 1020F1-1M) and donor-derived DRG neurons were plated at low density on glass coverslips and processed for whole-cell patch clamp electrophysiology in voltage-clamp and/or current clamp mode. Whole-cell patch electrophysiological experiments were conducted following previously published studies (26). Current densities were obtained by dividing INa amplitude by membrane capacitance. Current –voltage relationships were generated by plotting current density as a function of the […]. Conductance (G Na) was calculated by the […]
where INa is the current amplitude at voltage Vm, and Erev is the Na+ reversal potential.
Activation curves were derived by plotting normalized GNa as a function of test potential and fitted using […]
Where GNa,Max is the maximum conductance, Va is the membrane potential of half-maximal activation, Em is the membrane voltage and k is the slope factor. For steady -state inactivation, normalized current amplitude (INa/INa,Max) at the test potential was plotted as a function of prepulse potential (Vm) and fitted using the […]
Where Vh is the potential of half-maximal inactivation, E m is the membrane voltage, and k is the slope factor.
Transient INa inactivation decay was estimated with the standard exponential equation. Inactivation time constant (tau, τ) was fitted with the following equation: […]
where I(t) is the amplitude of the current at time t and Iss is the steady-state current during a single voltage-step.
The goodness of fitting was determined by correlation coefficient (R), and the cutoff of R was set at 0.85. To observe effects on long-term inactivation (LTI), a four-step protocol was employed during which cells were subjected to four 0 mV, 20 ms depolarization pulses separated by −90 mV, 40 ms recovery intervals. To control for various cell sizes, the current densities were calculated by dividing INa peak current amplitude/membrane capacitance (Cm). To represent the fraction of channels entering into LTI, the peak INa observed during depolarization cycles 2-4 was normalized to the peak INa observed during depolarization cycle 1 (INa/INa,Cycle 1) and plotted as a function of the depolarization cycle.
The cumulative (frequency-dependent) use-dependency was determined by applying 20 pulses with a depolarization to −10 mV (50 ms duration) and 50 ms recovery intervals with a train of 20 pulses at 10 Hz from a holding potential at -70 mV. […]

[1] = + Nav1.7 blocker ProTx-II, Cap+ - PW164
[2] = + Nav1.7 blocker ProTx-II, Cap+ PW164
[3] = + Nav1.7 blocker ProTx-II, Naïve + PW164
[4] = + Nav1.7 blocker ProTx-II, Naïve - PW164
[5] = + Nav1.7 blocker ProTx-II, Naive + ZL192
[6] = + Nav1.7 blocker ProTx-II, Naïve + ZL192

COC(=O)[C@@H](NC(=O)[C@H](CCC(=O)OC(C)(C)C)NC(=O)[C@H](CC(C)C)NC(=O)[C@@H]1CCCN1C(=O)OCc1ccccc1)C(C)C [PW164] (Cbz-PLE(OtBu)V-OMe) was tested, and the “effect on capsaicin-potentiated Na+ currents with ProTx-II” value (ProTx-II 10 nM, Suppl Fig 7) was “does not have any effect”, the Activation [1] was −29.15 ± 0.86 mV and the “Peak Density” value [1] was −80.16 ± 8.05 pA/pF. For the same compound, the Steady-State inactivation [1] was −61.95 ± 1.29 mV, the “Tau (τ)” value [1] was 0.98 ± 0.08 ms and the “Long-term inactivation, 2nd Pulse” value [2] was −118.43 ± 3.81 % maximal Na+ current. The “Long-term inactivation, 3rd Pulse” value [2] was −120.42 ± 4.69 % maximal Na+ current, the “Long-term inactivation, 2nd Pulse” value [3] was −105.72 ± 2.72 % maximal Na+ current and the “Long-term inactivation, 3rd Pulse” value [3] was −110.76 ± 2.72 % maximal Na+ current. For the same compound, the “Long-term inactivation, 4th Pulse” value [3] was −113.94 ± 3.54 % maximal Na+ current, the Activation [4] was −29.68 ± 1.17 mV and the “Peak Density” value [4] was −76.99 ± 6.01 pA/pF. For the same compound, the Steady-State inactivation [4] was −61.23 ± 1.29 mV and the “Tau (τ)” value [4] was 0.87 ± 0.04 ms.

CC(=O)N[C@@H](Cc1ccccc1)C(=O)N[C@@H](CC(C)C)C(=O)N1CCC[C@H]1C(=O)N[C@@H](CCCCN)C(=O)Nc1ccccc1 [ZL192] (Ac-FLPK-NHPh) was tested, and the “UseDependency (Suppl. Figure S14D)” value (Control cells, pulse 1) was 1, the “UseDependency (Suppl. Figure S14D)” value (Control cells, pulse 3) was 0.9097 and the “UseDependency (Suppl. Figure S14D)” value (Control cells, pulse 5) was 0.8784. For the same compound, the “UseDependency (Suppl. Figure S14D)” value (Control cells, pulse 10) was 0.8714, the “UseDependency (Suppl. Figure S14D)” value (Control cells, pulse 15) was 0.8646 and the “UseDependency (Suppl. Figure S14D)” value (Control cells, pulse 20) was 0.8556. For the same compound, the “UseDependency (Suppl. Figure S14D)” value (Naive cells, pulse 1) was 1, the “UseDependency (Suppl. Figure S14D)” value (Naive cells, pulse 3) was 0.9097 and the “UseDependency (Suppl. Figure S14D)” value (Naive cells, pulse 5) was 0.8778. For the same compound, the “UseDependency (Suppl. Figure S14D)” value (Naive cells, pulse 10) was 0.8143, the “UseDependency (Suppl. Figure S14D)” value (Naive cells, pulse 15) was 0.7732 and the “UseDependency (Suppl. Figure S14D)” value (Naive cells, pulse 20) was 0.7489. The Activation [5] was −27.64 ± 0.93 mV, the “Peak Density” value [5] was −96.53 ± 4.85 pA/pF and the Steady-State inactivation [5] was −59.34 ± 1.61 mV. For the same compound, the “Tau (τ)” value [5] was 1.33 ± 0.06 ms, the “Long-term inactivation, 2nd Pulse” value [6] was −99.26 ± 0.91 % maximal Na+ current and the “Long-term inactivation, 3rd Pulse” value [6] was −100.38 ± 1.08 % maximal Na+ current. For the same compound, the “Long-term inactivation, 4th Pulse” value [6] was −100.45 ± 1.3 % maximal Na+ current, the Activation (+ ProTx-II, Control + ZL192) was −30.93 ± 0.89 mV and the “Long-term inactivation, 2nd Pulse” value (+ ProTx-II, Control + ZL192) was −98.61 ± 0.74 % maximal Na+ current. The “Long-term inactivation, 3rd Pulse” value (+ ProTx-II, Control + ZL192) was −99.17 ± 0.84 % maximal Na+ current, the “Long-term inactivation, 4th Pulse” value (+ ProTx-II, Control + ZL192) was −98.95 ± 1.01 % maximal Na+ current and the “Peak Density” value (+ ProTx-II, Control + ZL192) was −101.87 ± 5.35 pA/pF. The Steady-State inactivation (+ ProTx-II, Control + ZL192) was −53.15 ± 0.91 mV, the “Tau (τ)” value (+ ProTx-II, Control + ZL192) was 1.0 ± 0.04 ms and the Activation (+ ProTx-II, Sh + ZL192) was −28.74 ± 1.12 mV. For the same compound, the “Peak Density” value (+ ProTx-II, Sh + ZL192) was −99.91 ± 8.28 pA/pF, the Steady-State inactivation (+ ProTx-II, Sh + ZL192) was −62.97 ± 1.64 mV and the “Tau (τ)” value (+ ProTx-II, Sh + ZL192) was 1.27 ± 0.08 ms. For the same compound, the “Long-term inactivation, 2nd Pulse” value (+ ProTx-II, Sh + Zl192) was −96.65 ± 1.81 % maximal Na+ current, the “Long-term inactivation, 3rd Pulse” value (+ ProTx-II, Sh + Zl192) was −97.25 ± 2.18 % maximal Na+ current and the “Long-term inactivation, 4th Pulse” value (+ ProTx-II, Sh + Zl192) was −99.23 ± 3.28 % maximal Na+ current. The “UseDependency (Suppl. Figure S14D)” value (ShFGF13 cells, pulse 1) was 1, the “UseDependency (Suppl. Figure S14D)” value (ShFGF13 cells, pulse 3) was 0.9541 and the “UseDependency (Suppl. Figure S14D)” value (ShFGF13 cells, pulse 5) was 0.9361. For the same compound, the “UseDependency (Suppl. Figure S14D)” value (ShFGF13 cells, pulse 10) was 0.8879, the “UseDependency (Suppl. Figure S14D)” value (ShFGF13 cells, pulse 15) was 0.8614 and the “UseDependency (Suppl. Figure S14D)” value (ShFGF13 cells, pulse 20) was 0.8526. For the same compound, the “activity on Na+ currents with ProTx-II” value (ZL192 50 μM, ProTx-II 10 nM, Suppl Fig 14) was “no activity”.
